Experimental data reported in patent US20080319042A1, “Compositions and methods for treatment of liver disease” (priority 2007, published 2008).

How the values were obtained:
SARS = type: cell-based; conditions: 50 mg·mL; FIG. 4
Hep G2 2.2.15 cells = assay: Cytotoxicity Assay (MTT); type: cell-based, human
Method: Hep G2 2.2.15 cells (120 μl) were seeded onto 96-well plates at a concentration of 2×10^5 cells/mL. After incubation for 72 h, serial dilutions of the test samples were added to monolayer Hep G2 2.2.15 cells, and culture at 37° C. in a humidified atmosphere of 5% CO2 in air for an additional 9 days, and the medium with sample was changed every 3 days, 10 μL 10% aqueous DMSO was used as control group. After incubation, the supernatant was taken out and 90 μL of DMEM and 10 μL of the 5 mg/ml MTT (3-[4,5-dimethylthiazol-2-yl]-2,5-diphenyltetrazolium bromide) solution was then added to each well, and the plates were incubated for an additional 3 hours. The MTT was removed, and to each well was added 100 μl of DMSO. The plates were agitated on an orbital shaker at 50 rpm at room temperature for 5 min. The optical density of each sample was measured at 490 nm. The percent absorbance of the samples treated with the test material was compared to the untreated sample to calculate the percentage of control. Data are expressed as relative viability, with cytotoxicity indicated by <100% relative viability.

HIV = assay: anti-HIV HOG.R5 assay; type: cell-based; conditions: 20 mcg/ml
HBsAg = assay: Anti-HBSAg Assay (Procedure B), HBsAg; type: cell-based, hepatitis B virus; set-up: HBsAg Ave.: unit not given here
Method: The HBV-producing human hepatoblastoma cell line, Hep G2 2.2.15 is maintained in DMEM supplemented with 10% fetal bovine serum (FBS), 2 mM glutamine, 100 units/ml penicillin, 100 μg/ml streptomycin at 37° C. under 5% CO2 in air.
Samples were dissolved in DMSO at the concentration of 20 mg/mL, then further diluted with DMEM medium to the appropriate concentration.
Hep G2 2.2.15 cells (120 μl) were seeded onto 96-well plates at a concentration of 2×10^5 cells/mL. The cells incubated for 72 h in the medium without G418, after which the test samples (120 μl) were added. Five 3-fold serial dilutions of samples were tested. PBS and 3TC (lamivudine) were included as the negative and positive controls, respectively. The treated cells were incubated at 37° C. for 9 days; with the medium with sample being changed each 3 days, after which the culture supernatant was removed for analysis of both the hepatitis B surface antigen (HBsAg) production and hepatitis B DNA expression.
The HBsAg released into the culture medium in the presence or absence of test material was assayed using the kit manufactured by Shanghai Siic Kehua Biotech Co., Ltd (Shanghai, China). This enzyme immunoassay is based on the capture of HBsAg on monoclonal antibody-coated plates. Four- and twelve-fold dilutions of all culture supernatants collected were assayed in triplicate wells of the kit plate. The percentage inhibition of HBsAg secretion in the presence of the compound was calculated against the negative control (PBS). The IC50 values, the dose that inhibited viruses by 50%, were calculated using non-linear regression analysis (percent survival versus concentration).

HCV JFH1 = HCV JFH1 infectivity assay (JFH1 Foci Reduction Assay); type: cell-based, hepatitis C virus; conditions: virus preincubated with compound; Huh 7 cells; 48 hr post infection; RD8, RD16, RD17, RD18 as glucosidase hydrolysis products
influenza = influenza virus entry assay; type: cell-based; set-up: dose or concentration left out as unconfirmed; conditions: FIG. 4
HCV/HIV pseudovirions = assay: microbe, parasite or virus in culture; type: cell-based, hepatitis C virus; conditions: for inhibition of HCV/HIV entry: 100 μg/mL
Hep G2.2.15 cells = assay: % Cell Viability in Anti-HBSAg Assay (Procedure A); type: cell-based, human; conditions: 50 μg/ml
Method: The HBV-producing human hepatoblastoma cell line, Hep G2.2.15 was maintained in DMEM supplemented with 10% fetal bovine serum (FBS), 2 mM glutamine, 100 units/ml penicillin, 100 μg/ml streptomycin and 380 μg/ml gentamicin sulfate (G418) at 37° C. under 5% CO2 in air. The Hep G2 parental cells were grown under identical conditions in MEM with Earle's salts without G418.
Hep G2.2.15 cells (190 μl) were seeded onto microtiter plates at a concentration of 20×10^4 cells/ml. The cells incubated overnight in medium without G418 after which the compound compositions (10 μl) were added. Five 2-fold serial dilutions of extracts or fractions were tested starting at 200 μg/ml final culture concentration. PBS and 3TC (lamivudine) were included as the negative and positive controls, respectively. The treated cells were incubated at 37° C. for 4 days, after which the hepatitis B surface antigen (HBsAg) production in culture supernatants was assayed. The HBsAg released into the culture medium in the presence or absence of test samples was assayed using the BIO-RAD Genetic Systems HBsAg EIA 3.0 kit (Bio-Rad, Redmond, Wash.). This enzyme immunoassay is based on the capture of HBsAg on monoclonal antibody-coated plates. Four- and twelve-fold dilutions of all culture supernatants collected were assayed in triplicate wells of the EIA plate. The percentage inhibition of HBsAg secretion in the presence of the plant samples was calculated against the negative control (PBS).

Marburg = type: cell-based; set-up: dose or concentration left out as unconfirmed; conditions: FIG. 4

Compound: COC(=O)C1=COC(O)C2C1C(O)C(O)C2(C)O (mixture of isomers) [lamiridosin]
- activity against SARS virus entry (SARS): inactive
- Toxicity to Hep G2 2.2.15 cells (Table 2) (Hep G2 2.2.15 cells; 75 μg/mL): Toxic
- Toxicity to Hep G2 2.2.15 cells (Table 2) (Hep G2 2.2.15 cells; 150 μg/mL): Toxic
- cytotoxicity to the Hep G2 2.2.15 cells (Hep G2 2.2.15 cells; at doses greater than 50 μg/ml): non-cytotoxic
- activity against HIV (HOG.R5 assay) (HIV): inactive
- HBsAg Ave. (HBsAg; 9.375 μg/mL): 1.152
- HBsAg Inhibition % (HBsAg; 9.375 μg/mL): 0%
- HBsAg OD1 (HBsAg; 9.375 μg/mL): 1.080
- HBsAg OD2 (HBsAg; 9.375 μg/mL): 1.220
- HBsAg OD3 (HBsAg; 9.375 μg/mL): 1.157
- HBsAg Ave. (HBsAg; 18.75 μg/mL): 1.140
- HBsAg Inhibition % (HBsAg; 18.75 μg/mL): 0%
- HBsAg OD1 (HBsAg; 18.75 μg/mL): 1.208
- HBsAg OD2 (HBsAg; 18.75 μg/mL): 1.105
- HBsAg OD3 (HBsAg; 18.75 μg/mL): 1.107
- HBsAg Ave. (HBsAg; 37.5 μg/mL): 0.765
- HBsAg Inhibition % (HBsAg; 37.5 μg/mL): 29.4%
- HBsAg OD1 (HBsAg; 37.5 μg/mL): 0.797
- HBsAg OD2 (HBsAg; 37.5 μg/mL): 0.744
- HBsAg OD3 (HBsAg; 37.5 μg/mL): 0.755
- anti-HBSAg assay activity (in words) (HBsAg; 37.5 μg/ml, Table 2): inactive
- Estimated IC50 (inhibition of HCV JFH1 infectivity) (HCV JFH1): 20 µg/mL
- activity against influenza virus entry (influenza): inactive
- Exp2 (% Inhib) (HCV/HIV pseudovirions; 1 ug/mL): 56.6%
- Trial 1 (% Inhib) (HCV/HIV pseudovirions; 1 ug/mL): 70.1%
- Exp2 (% Inhib) (HCV/HIV pseudovirions; 5 ug/mL): 68.4%
- Trial 1 (% Inhib) (HCV/HIV pseudovirions; 5 ug/mL): 81.2%
- Exp2 (% Inhib) (HCV/HIV pseudovirions; 10 ug/mL): 81.8%
- Trial 1 (% Inhib) (HCV/HIV pseudovirions; 10 ug/mL): 86.8%
- Exp2 (% Inhib) (HCV/HIV pseudovirions; 50 ug/mL): 96.7%
- Trial 1 (% Inhib) (HCV/HIV pseudovirions; 50 ug/mL): 96.1%
- Exp2 (% Inhib) (HCV/HIV pseudovirions; 100 ug/mL): 99.5%
- Trial 1 (% Inhib) (HCV/HIV pseudovirions; 100 ug/mL): 99.5%
- inhibition of HCV/HIV entry (HCV/HIV pseudovirions; FIG. 1): approximately 80%
- inhibition of HCV/HIV entry (HCV/HIV pseudovirions; FIG. 1, listed as Lamiridosin): ca. 85%
- anti-hepatitis C virus activity (in words) (HCV/HIV pseudovirions; FIG. 1): did block HCV viral entry
- IC50 in the anti-HCV assay (HCV viral entry) (HCV/HIV pseudovirions; FIG. 2): 0.6 µg/mL
- IC50 (HCV/HIV pseudovirions; FIG. 2, read-out: IC50 in the anti-HCV assay (HCV viral entry)): 2310 nM
- Imax in the anti-HCV assay (HCV/HIV pseudovirions; FIG. 2 fit): 93.9±3.5%
- % Cell Viability (Hep G2.2.15 cells): 100%
- activity against Marburg virus entry (Marburg): inactive
